The values below come from US9328125B2, “Bivalent AMPA receptor positive allosteric modulators” (The Board of Regents of the University of Texas System, priority 2012, dated 2016).

The test system of assay [1] is PCP-induced caspase-3 activity. Description: PCP-induced caspase-3 enzyme activity in organotypic cortical-striatal slices, modulation of the (±)AMPA effect. Format: cell-based, rat. Conditions: for modulation of AMPA effect on PCP-induced caspase-3 activity, in words: AMPA 1 μM, FIG. 2A-2B; for IC50: Rattus norvegicus. As to the method:
The inventors have designed and chemically synthesized a class of new bivalent AMPAR ligands (see examples in Table 1). […] The neuroprotective effect of (±)APMA on PCP-induced caspase-3 activities was potentiated by cyclothiazide (CTZ) and aniracetam, two existing AMPAR ligands (approximate IC50 1-3 μM, FIG. 2A for CTZ).
B. Measurement of Caspase-3 Enzyme Activities
Compounds showing significant AMPAR PAM effects on glutamate-induced calcium influx in HEK293 expressing hGluA1i/3i were further tested for their ability to prevent PCP-induced caspase-3 activation in our established in vitro organotypic slice model (Wang et al., Neuropsychopharmacology 32(5): 1178-1194, 2007). Initial screening includes two steps. In step one, all candidates were tested in a single experiment to determine an appropriate approximate concentration range for its effect on PCP-induced caspase-3 activity by adding eight serial concentrations of the compound at log intervals (0, 0.0001-10 μM). Compounds showing promising ˜IC50 (<10 μM) and slope (0.8-1.20) was further screened in a paradigm in which each selected compound was tested in 3 independent experiments to determine its IC50 and slope values by adding eight serial concentrations of the compound at approximately half-log intervals. For all initial screening experiments, rat organotypic brain slice cultures were prepared as previously described (Wang et al., Neuropsychopharmacology 32(5): 1178-1194, 2007). All experiments were executed on DIV10. In each experiment, the slices were pre-treated with the solution vehicle (0.1% DMSO) or 6 serial concentrations of the new compounds for 15 min, followed with (±)APMA (1 μM) (or its vehicle, 0.1% DMSO) for another 15 min. PCP (3 μM) or its vehicle (saline) was added and incubation continued for 6 hrs. The superficial cortical layers of each treated slice were harvested with the aid of an inverted microscopy and placed into ice-cold lysis buffer. Supernatants were collected and caspase-3 activity measured as described previously (Wang et al., Neuropsychopharmacology 32(5): 1178-1194, 2007). Caspase-3 activity was measured over 60 min and calculated as the difference between the substrate degradation rate in samples containing and those not containing Z-DEVD-FMK, a selective caspase-3 inhibitor. Data are expressed as DEVDase activity (AFC pmoles/mg protein/60 min). Protein was measured by the bicinchoninic acid (BCA) technique (Smith et al., 1985), using bovine serum albumin as standards. Each activity measurement was averaged from duplicate samples. Baseline activity (saline treated) was subtracted from all treatments. The caspase-3 activity of in slices incubated with PCP alone served as a positive control. Each compound's activity was normalized to the protective effect of (±)AMPA against PCP (100%). IC50 and slope values were analyzed and determined with the SigmaPlot four-parameter equation as described previously (Petukhov et al., J Med Chem 47(12): 3009-3018, 2004). Each compound's IC50 and slope values were determined from data in at least 3 individual experiments. Group data is reported as mean±SEM.

Another assay concerns AMPA receptor. Description: Glutamate (100 μM)-evoked calcium influx in DIV9 dissociated rat forebrain neurons. Format: cell-based. Conditions: for EC50 / Emax (%) / pEC50 (-logEC50): Glutamate (100 μM)-evoked Ca2+ influx; for enhancement of glutamate-evoked calcium influx, in words: glutamate 100 μM, DIV9 dissociated rat forebrain neurons cultured on PND1. The source says:
Fluorometric readings were taken from each well every 1.7 seconds for 20 seconds before any addition to record baseline value and for 70 seconds after addition of any compound(s) to monitor the induced changes of calcium influx. Each well's peak fluorescence reading after addition of compound(s) represents effect of a certain concentration of a given compound(s) after subtracting the average baseline fluorescence. Peak fluorometric reading from duplicate or triplicate wells was averaged, and represents the effect of a certain concentration on calcium influx after subtracting control value. […] points were fitted with a sigmoidal function (bottom asymptote=100, nHill=1) by using Prism from GraphPad (San Diego, Calif.) to determine the compound's EC50 (affinity or potency). Each compound's EC50 was summarized from at least 3 individual experiments and presented as the mean±SE.

Assay [2] has as its system PCP-induced cleaved caspase-3 immunoreactive neurons in frontal cortex (M2/1). Description: Image analysis of cleaved caspase-3 immunoreactive neurons in frontal cortex (M2/1) of PND7 rats exposed to PCP. In kind it is in vivo, rat. As to the method: Cleaved caspase-3 immunoreactive neurons, 8 hrs on PND7 after Saline (A) or PCP (10 mg/kg, sc, B-E) without (A-B) or with (C-E) pretreatment (30 min prior to PCP) of HJC-1-22 (C, 0.1 mg/kg; D, 1 mg/kg; E, 10 mg/kg, sc) were shown.
C. Image Analysis of Cleaved Caspase-3 Immunoreactive Neurons
PCP induces developmental neuroapoptosis via caspase-3 activation in vulnerable neurons (Wang et al., Neuropsychopharmacology 32(5): 1178-1194, 2007). Caspase-3 activation in vivo can be observed by immunohistochemistry with specific antibodies against cleaved caspase-3 protein and quantified by image analysis of cleaved caspase-3 immunoreactive neurons in specific brain region(s) or sub-region(s) in developing brain. Compounds showing significant AMPAR PAM effects on glutamate-induced calcium influx in HEK293 expressing hGluA1i/3i and significant preventive effect on PCP-induced caspase-3 enzyme activities in organotypic slices were further defined their abilities to block PCP-induced apoptosis in vivo.
PND7 rat pups were used in the in vivo studies. […]
In step 1, each candidate was tested in two (n=2) individual experiments by using PND7 rat pups from 2 different liters. […] The activity percentages (%) of each dose vs. PCP were calculated to estimate its IC50 which was used to determine its in vivo effective dose range for the step 2 study. […]

The next assay has as its system morphine tolerance. Put plainly: Morphine tolerance, tail-flick test. Conditions: 10 mg/kg. In kind it is in vivo, mouse. As to the method: The tail-flick test was used to determine basal nociception and morphine antinociception as described previously (Wang et al., J Neurosci 21:1779-86, 2001; Tang et al., J Pharmacol Exp Ther 317:901-909, 2006). In brief, One third of the distal portion of mouse tail was immersed into a water bath maintained at 52° C., and the latency of a quick tail-flick response was recorded. Morphine-antinociception was evaluated 30 min after a test dose of morphine (10 mg/kg s.c. unless otherwise stated) and is expressed as the percentage of maximal possible effect (MPE). MPE %=100%×(postdrug latency−predrug latency)/(cutoff−predrug latency). A 12-s cutoff time was used to prevent tissue damage (FIG. 9A and FIG. 10A).
(§1) G. Chronic Opioid Tolerance and Dependence.
(§2) To induce chronic opioid tolerance and dependence, mice were treated with morphine (10 mg/kg s.c., given at 8:00 AM and 6:00 PM) for 5 days (Herz and Teschemacher, Experientia 29:64-65, 1973). Control mice received an equal number and volume of injections with saline. Morphine tolerance and naloxone-precipitated withdrawal were evaluated. Haloperidol (0.1-1.0 mg/kg i.p. or p.o.) was given 30 min before the test dose of morphine or naloxone (FIG. 9B and FIG. 10B).

Assay [3] concerns morphine physical dependence. Description: Morphine physical dependence, naloxone-precipitated withdrawal. In kind it is in vivo, mice. Conditions: 10 mg/kg. As for the experimental part:
as §1, §2

The mark [4] stands for this setting: existing AMPAR ligands, FIG. 2A for CTZ, read-out: approximate IC50, potentiation of neuroprotective effect of (±)AMPA on PCP-induced caspase-3 activities.
Setting [5] is: organotypic slices, (±)AMPA 1 μM, PCP 3 μM, read-out: IC50, modulation of (±)AMPA effect on PCP-induced caspase-3 activity.

Where two headings read alike, the source gives them in different places.

As to `NS(=O)(=O)c1cc2c(cc1Cl)NC(C1CC3C=CC1C3)NS2(=O)=O` (centres unmarked) [CTZ, cyclothiazide, reference compound], the “modulation of AMPA effect on PCP-induced caspase-3 activity, in words” value (“modulation of AMPA effect” below) in assay [1] (PCP 3 μM) is listed as “concentration-dependent fashion”. Further, the IC50 in assay [1] (setting [4]) was 1000 to 3000 nM.
For `CC(C)S(=O)(=O)NC[C@H](C)c1ccc(-n2ccc3ncccc32)cc1` [HJC0229, Propane-2-sulfonic acid [2-(4-pyrrolo[3,2-b]pyridin-1-yl-phenyl)-propyl]amide], in the assay with AMPA receptor, the EC50 came to 8.76 nM, the “Emax (%)” value came out at 168.9% and the “pEC50 (-logEC50)” value turned out to be 8.06.
Take `CC(C)S(=O)(=O)NC[C@H](C)c1ccc(-c2ccnc(C(=O)N3CCCC3)c2)cc1` [HJC-1-22, Propane-2-sulfonic acid (2-{4-[2-(pyrrolidine-1-carbonyl)-pyridin-4-yl]phenyl}-propyl)-amide]: in the assay with AMPA receptor, the EC50 was 6.53 nM; the “Emax (%)” value is reported as 170.0%; the “pEC50 (-logEC50)” value stood at 8.28; the “enhancement of glutamate-evoked calcium influx, in words” value was “enhanced glutamate (100 μM)-evoked calcium influx in a concentration-dependent manner”. Moreover, the “modulation of AMPA effect” value in assay [1] (PCP 3 μM) is recorded as “displayed more potent activity than LY451395”. For the same compound, the IC50 in assay [1] (setting [5]) is 15 nM. Besides, in assay [2] (10 mg/kg sc, 30 min prior to PCP (10 mg/kg, sc)), the “prevention of PCP (10 mg/kg)-induced caspase-3 activation in frontal cortex” value came out at 85%. For the same compound, the “effect on PCP-induced cleaved caspase-3 immunoreactive neurons in frontal cortex (M2/1), in words” value in assay [2] (0.1, 1, 10 mg/kg sc, 30 min prior to PCP, 8 hrs) was “significantly reduced PCP-induced cleaved caspase-3 immunoreactive neurons”. The “reversal of established morphine tolerance” value with morphine tolerance (FIG. 9A) is on record as “reversed established morphine tolerance”. Also, in the assay with morphine tolerance (FIG. 10A), the “prevention of development of morphine tolerance” value is recorded as “prevented the development of morphine tolerance”. For the same compound, in assay [3] (FIG. 9B), the “reversal of morphine physical dependence” value is recorded as “partially reversed physical dependence”. Also, the “prevention of morphine physical dependence” value in assay [3] (FIG. 10B) is on record as “partially prevented physical dependence”.
With `COc1ccc(C(=O)N2CCCC2=O)cc1` [aniracetam, reference compound], the IC50 in assay [1] (setting [4]) was 1000 to 3000 nM.
With `CC(C)S(=O)(=O)NC[C@H](C)c1ccc(-n2ccc3cc(C(=O)N4CCCCC4)ccc32)cc1` [HJC-1-24, Propane-2-sulfonic acid (2-{4-[5-(piperidine-1-carbonyl)-indol-1-yl]-phenyl}-propyl)amide], the “modulation of AMPA effect” value in assay [1] (PCP 3 μM) was “displayed more potent activity than LY451395”. Further, the IC50 in assay [1] (setting [5]) came to 5 nM. The “fold more potent than CTZ (IC50, caspase-3 activity)” value in assay [1] (versus CTZ) was “at least 200 fold”.
Regarding `CC(C)S(=O)(=O)NC[C@H](C)c1ccc(-c2ccc(CCNS(C)(=O)=O)cc2)cc1` [LY451395, reference compound], in the assay with AMPA receptor, the “enhancement of glutamate-evoked calcium influx, in words” value was “enhanced glutamate (100 μM)-evoked calcium influx in a concentration-dependent manner”.
As to `CC(C)S(=O)(=O)NC[C@H](C)c1ccc(-c2ccc(CCN3CCCC3=O)cc2)cc1` [HJC0173, Propane-2-sulfonic acid (2-{4′-[2-(2-oxo-pyrrolidin-1-yl)-ethyl]-biphenyl-4-yl}-propyl)amide], in the assay on AMPA receptor, the EC50 stood at 4.02 nM, the “Emax (%)” value was 127.1% and the “pEC50 (-logEC50)” value is on record as 8.39.
Turning to `CC(C)S(=O)(=O)NC[C@H](C)c1ccc(-n2ccc3cc(C(=O)N4CCCC4)ccc32)cc1` [HJC0210, Propane-2-sulfonic acid (2-{4-[5-(pyrrolidine-1-carbonyl)-indol-1-yl]-phenyl}-propyl)amide], in the assay on AMPA receptor, the EC50 came to 0.06 nM; the “Emax (%)” value is recorded as 157.5%; the “pEC50 (-logEC50)” value was found to be 10.21; the “enhancement of glutamate-evoked calcium influx, in words” value is “enhanced glutamate (100 μM)-evoked calcium influx in a concentration-dependent manner”.
